# Data as given in patent publication US6586617B1, “Sulfonamide derivatives” (Sumitomo Chemical Takeda Agro Company, Limited, priority 1999, dated 2003).
# Where two headings read alike, the source gives them in different places.
# Assays:
# [1] = tested on: cucumber gray mold (Botrytis cinerea); assay: Test Example 9: cucumber gray mold, single and combined fungicides (Table 6); details: for Lesion area ratio (%) / Protection value: young cucumber (Yotsuba)
# Procedure: (§1) The protection value was calculated by means of the equation as follows. protection value=(1−(lesion area in the division treated with fungicide)/lesion area in the division not treated with fungicide))×100
# (§2) An estimated protection value of a mixture of active ingredients was calculated according to the Colby's formula [R. S. Colby, Weeds 15, 20-22 (1967)] and compared with the experimental protection value.
# [wherein, E is the estimated protection value (additive effect) which will be obtained when the active ingredients A and B are used in a mixture in concentrations a and b, respectively x is the protection value obtained when the active igredient A is used in a concentration a, and y is the protection value obtained when the active ingredient B is used in a concentration b. […] A protection value equal 0 means that the lesion area ratio of the plants in the test group is as large as that of the plants in the untreated control group. A protection value equals 100 means that the plants in the test group are free from the disease.
# The test compound (denoted by the compound No. in Table 1 above), azoxystrobin, mepanipyrim and iprodione, individually or in combination, were dissolved in dimethylformamide (final concentration was 1 wt %). Xylene (final concentration was 0.02 wt %) and Tween 20 (Trade Name) (final concentration was 0.02 wt %) were added to the solution. The resulting mixture was diluted with water to give a test solution which contained a given concentration (ppm) of the active ingredient. A spreader adjuvant SINDAIN (Trade Name, Manufactured by Takeda Chemical Industries, Ltd, and comprises 20 wt % of polyoxyethylene nonylphenyl ether and 12 wt % of calcium ligninsulfonate) was added to this solution in the final concentration of 0.05 wt % to give a spray agent.
# The spray agent was sprayed in an amount of 10 ml/pot on young cucumber (cultural variety: Yotsuba) cultivated for 3 to 4 weeks in a greenhouse. After drying up in a room, the treated cucumbers were inoculated with pathogenic fangi on the leaves by placing the mycelial disks which were cut out from a PSA medium grown with Botrytis cinerea and then kept in a greenhouse at 28° C. for 3 days. Then, the ratio of the lesion area on the plants treated with the test compound and that on the plants treated with another substances to that on untreated plants was investigated.
# [2] = tested on: apple Alternaria leaf blotch (Alternaria mali); assay: Test Example 6: apple Alternaria leaf blotch, single and combined fungicides (Table 3); details: for Lesion area ratio (%) / Protection value: apple leaves; for protection effect in combination compared with estimated protection effect (synergy): in combination with mepanipyrim (No. 289) and iminoctadine (No. 97), respectively
# Procedure: as §1, §2
# [wherein, E is the estimated protection value (additive effect) which will be obtained when the active ingredients A and B are used in a mixture in concentrations a and b, respectively x is the protection value obtained when the active igredient A is used in a concentration a, and y is the protection value obtained when the active ingredient B is used in a concentration b.
# [3] = tested on: rice Helminthosporium leaf spot (Cochliobolus miyabeanus); assay: Test Example 8: rice Helminthosporium leaf spot, single and combined fungicides (Table 5); format: in vivo; details: for Lesion area ratio (%) / Protection value: young rice plants
# [4] = tested on: apple Alternaria leaf blotch (Alternaria mali); assay: Test Example 5: apple Alternaria leaf blotch, single and combined fungicides (Table 2); format: in vivo; details: for Lesion area ratio (%) / Protection value: apple seedlings; for protection effect in combination compared with estimated protection effect (synergy): in combination with chlorothalonil, hexaconazole and azoxystrobin
# [5] = tested on: rice blast (Pyricularia oryzae); format: in vivo; details: for Lesion area ratio (%) / Protection value: rice plants
smiles,measurement,setting,value
"CC#Cc1cc(C)nc(Nc2ccccc2)n1 [Mepanipyrim, mepanipyrim, reference compound]",Lesion area ratio (%),[1]; 10 ppm active ingredient,6.0%
same,Protection value,[1]; 10 ppm active ingredient,53.8
same,Lesion area ratio (%),[2]; 0.4 ppm active ingredient,68.3%
same,Protection value,[2]; 0.4 ppm active ingredient,4
same,Lesion area ratio (%),[2]; 1.6 ppm active ingredient,73.3%
same,Protection value,[2]; 1.6 ppm active ingredient,0
same,Lesion area ratio (%),[2]; 6.3 ppm active ingredient,19.3%
same,Protection value,[2]; 6.3 ppm active ingredient,73
"CC(C)NC(=O)N1CC(=O)N(c2cc(Cl)cc(Cl)c2)C1=O [Iprodione, iprodione]",Lesion area ratio (%),[1]; 10 ppm active ingredient,3.7%
same,Protection value,[1]; 10 ppm active ingredient,71.3
"CON(c1ccc([N+](=O)[O-])cc1Cl)S(=O)(=O)c1cc(Cl)ccc1Cl [Compound No. 528, N-Methoxy-4′-nitro-2,2′,5-trichlorobenzenesulfonanilide]",melting point,,136 to 138 °C
"CCN(c1ccc(Cl)cc1[N+](=O)[O-])S(=O)(=O)c1ccc(C)cc1 [Compound No. 289, 4′-Chloro-N-ethyl-2′-nitro-p-toluenesulfonanilide]",Lesion area ratio (%),[3]; 25 ppm active ingredient,5.0%
same,Protection value,[3]; 25 ppm active ingredient,71.4
same,Lesion area ratio (%),[3]; 100 ppm active ingredient,4.5%
same,Protection value,[3]; 100 ppm active ingredient,74.3
same,protection effect in combination compared with estimated protective effect (synergy),[3]; in combination with ferimzone,higher protection effect
same,Lesion area ratio (%),[1]; 100 ppm active ingredient,13.2%
same,Protection value,[1]; 100 ppm active ingredient,0.0
same,protection effect in combination compared with estimated protection effect (synergy),"[1]; in combination with azoxystrobin, mepanipyrim and iprodione",higher protection effect
same,Lesion area ratio (%),[4]; 0.4 ppm active ingredient,36.9%
same,Protection value,[4]; 0.4 ppm active ingredient,38
same,Lesion area ratio (%),[4]; 1.6 ppm active ingredient,20.8%
same,Protection value,[4]; 1.6 ppm active ingredient,65
same,Lesion area ratio (%),[4]; 6.3 ppm active ingredient,3.8%
same,Protection value,[4]; 6.3 ppm active ingredient,94
same,Lesion area ratio (%),[4]; 25 ppm active ingredient,4.3%
same,Protection value,[4]; 25 ppm active ingredient,93
same,protection effect in combination compared with estimated protection effect (synergy),[4],higher protection effect
same,Lesion area ratio (%),[5]; 100 ppm active ingredient,25.0%
same,Protection value,[5]; 100 ppm active ingredient,0
same,Lesion area ratio (%),[5]; 200 ppm active ingredient,25.0%
same,Protection value,[5]; 200 ppm active ingredient,0
same,protection effect in combination compared with estimated protection effect (synergy),[5]; in combination with azoxystrobin,higher protection effect
same,Lesion area ratio (%),[2]; 0.4 ppm active ingredient,18.3%
same,Protection value,[2]; 0.4 ppm active ingredient,74
same,Lesion area ratio (%),[2]; 1.6 ppm active ingredient,13.7%
same,Protection value,[2]; 1.6 ppm active ingredient,81
same,Lesion area ratio (%),[2]; 6.3 ppm active ingredient,9.3%
same,Protection value,[2]; 6.3 ppm active ingredient,87
same,protection effect in combination compared with estimated protection effect (synergy),[2],higher protection effect
"CCN(c1ccc(SC)cc1[N+](=O)[O-])S(=O)(=O)c1ccc(C)cc1 [Compound No. 227, N-Ethyl-4′-methylthio-2′-nitro-p-toluenesulfonanilide]",melting point,,135 to 136 °C
"Cc1ccc(S(=O)(=O)N(C)c2ccccc2[N+](=O)[O-])cc1 [Compound No. 38, N-Methyl-2′-nitro-p-toluenesulfonanilide]",melting point,,131.5 to 132.5 °C
"N=C(N)NCCCCCCCCNCCCCCCCCNC(=N)N [Iminoctadine, iminoctadine, reference compound]",Lesion area ratio (%),[2]; 0.4 ppm active ingredient,66.7%
same,Protection value,[2]; 0.4 ppm active ingredient,6
same,Lesion area ratio (%),[2]; 1.6 ppm active ingredient,33.8%
same,Protection value,[2]; 1.6 ppm active ingredient,52
same,Lesion area ratio (%),[2]; 6.3 ppm active ingredient,35.0%
same,Protection value,[2]; 6.3 ppm active ingredient,51
"CO/C=C(/C(=O)OC)c1ccccc1Oc1cc(Oc2ccccc2C#N)ncn1 [Azoxystrobin, azoxystrobin, reference compound]",Lesion area ratio (%),[1]; 10 ppm active ingredient,3.9%
same,Protection value,[1]; 10 ppm active ingredient,69.8
same,Lesion area ratio (%),[4]; 6.3 ppm active ingredient,25.8%
same,Protection value,[4]; 6.3 ppm active ingredient,56
same,Lesion area ratio (%),[4]; 25 ppm active ingredient,25.0%
same,Protection value,[4]; 25 ppm active ingredient,58
same,Lesion area ratio (%),[5]; 0.1 ppm active ingredient,11.0%
same,Protection value,[5]; 0.1 ppm active ingredient,56
same,Lesion area ratio (%),[5]; 0.5 ppm active ingredient,5.0%
same,Protection value,[5]; 0.5 ppm active ingredient,80
"N#Cc1c(Cl)c(Cl)c(Cl)c(C#N)c1Cl [Chlorothalonil, chlorothalonil, reference compound]",Lesion area ratio (%),[4]; 6.3 ppm active ingredient,43.5%
same,Protection value,[4]; 6.3 ppm active ingredient,27
same,Lesion area ratio (%),[4]; 25 ppm active ingredient,60.0%
same,Protection value,[4]; 25 ppm active ingredient,0
same,Lesion area ratio (%),[4]; 100 ppm active ingredient,16.8%
same,Protection value,[4]; 100 ppm active ingredient,72
Cc1ccc(S(=O)(=O)N(c2ccc([N+](=O)[O-])cc2C#N)C(C)C)cc1 [Compound No. 421],Lesion area ratio (%),[4]; 0.4 ppm active ingredient,24.7%
same,Protection value,[4]; 0.4 ppm active ingredient,58
same,Lesion area ratio (%),[4]; 1.6 ppm active ingredient,20.0%
same,Protection value,[4]; 1.6 ppm active ingredient,66
same,Lesion area ratio (%),[4]; 6.3 ppm active ingredient,2.3%
same,Protection value,[4]; 6.3 ppm active ingredient,96
same,Lesion area ratio (%),[4]; 25 ppm active ingredient,0.3%
same,Protection value,[4]; 25 ppm active ingredient,99
same,protection effect in combination compared with estimated protection effect (synergy),[4],higher protection effect
"C/C(=N/Nc1nc(C)cc(C)n1)c1ccccc1C [Ferimzone, ferimzone, reference compound]",Lesion area ratio (%),[3]; 25 ppm active ingredient,1.5%
same,Protection value,[3]; 25 ppm active ingredient,91.4
same,Lesion area ratio (%),[3]; 100 ppm active ingredient,0.4%
same,Protection value,[3]; 100 ppm active ingredient,98.0
"Cc1ccc(S(=O)(=O)N(c2ccc(Cl)cc2C#N)C(C)C)cc1 [Compound No. 97, 4′-Chloro-2′-cyano-N-isopropyl-p-toluenesulfonanilide]",Lesion area ratio (%),[2]; 0.4 ppm active ingredient,25.0%
same,Protection value,[2]; 0.4 ppm active ingredient,65
same,Lesion area ratio (%),[2]; 1.6 ppm active ingredient,19.2%
same,Protection value,[2]; 1.6 ppm active ingredient,73
same,Lesion area ratio (%),[2]; 6.3 ppm active ingredient,8.0%
same,Protection value,[2]; 6.3 ppm active ingredient,89
same,protection effect in combination compared with estimated protection effect (synergy),[2],higher protection effect
"CCCCC(O)(Cn1cncn1)c1ccc(Cl)cc1Cl (stereo not drawn) [Hexaconazole, hexaconazole, reference compound]",Lesion area ratio (%),[4]; 0.4 ppm active ingredient,70.0%
same,Protection value,[4]; 0.4 ppm active ingredient,0
same,Lesion area ratio (%),[4]; 1.6 ppm active ingredient,66.7%
same,Protection value,[4]; 1.6 ppm active ingredient,0
same,Lesion area ratio (%),[4]; 6.3 ppm active ingredient,21.7%
same,Protection value,[4]; 6.3 ppm active ingredient,63
